Assay results: paper PMC3909101, “Chemical Rescue and Inhibition Studies to Determine the Role of Arg301 in Phosphite Dehydrogenase” (PLoS ONE, 2014)
“And” between values parts separate entries of the source, which are not always exact repeats. Equal values may be shown once. “Also recorded” adds a separate entry of the source. Read-outs that look alike come from different tables or passages of the source.

Experiments:
17X-PTDH-R301A [1] = molecular target: T1, 17X-PTDH-R301A (Stutzerimonas stutzeri (Pseudomonas stutzeri), UniProt O69054, D13E/E130K/I150F/M26I/Q132R/Q137R/R301A/V71I, form not given); format: biochemical, Pseudomonas stutzeri WM88; conditions: for k rescue/ K m, phosphite: R301A with saturating rescue reagent; for EC50: pH 7.25, 25°C, read-out: K R (concentration of rescue reagent at which half-maximal rate was observed); for K m, phosphite (apparent): rescue agent and NAD+ saturating (>10 K R); for Rescue of activity of the R301A mutant: exogenous reagent, unsuccessful ones tested at 20–100 mM depending on solubility
T1 sequence (O69054 1-329 D13E/E130K/I150F/M26I/Q132R/Q137R/R301A/V71I): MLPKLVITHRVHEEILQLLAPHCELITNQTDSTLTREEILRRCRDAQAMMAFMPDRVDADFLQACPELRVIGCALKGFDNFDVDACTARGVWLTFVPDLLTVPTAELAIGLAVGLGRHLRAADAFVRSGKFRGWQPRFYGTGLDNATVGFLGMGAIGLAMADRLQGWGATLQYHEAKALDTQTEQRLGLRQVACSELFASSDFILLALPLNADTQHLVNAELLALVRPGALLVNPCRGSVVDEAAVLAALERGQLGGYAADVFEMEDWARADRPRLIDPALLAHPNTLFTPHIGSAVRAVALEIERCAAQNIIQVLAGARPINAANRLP

17X-PTDH-R301A [2] = molecular target: T1, 17X-PTDH-R301A; format: biochemical, Pseudomonas stutzeri WM88; conditions: saturating rescue reagent (>20 K R), deuterated vs protiated phosphite, pH 7.25, 25°C
17X-PTDH-R301A [3] = molecular target: T1, 17X-PTDH-R301A; format: biochemical, Pseudomonas stutzeri WM88
[4] = Expected proportion of aminoguanidine in unprotonated and protonated states at various pH values; format: physicochemical
[5] = set-up: method as in earlier work; conditions: cited from earlier work
17X-PTDH [6] = test: Sulfite inhibition of 17X-PTDH; format: biochemical, Pseudomonas stutzeri WM88; conditions: competitive vs phosphite, 4 mM NAD+, pH 7.25, read-out: K is
Protocol: Reactions were performed in 100 mM MOPS (pH 7.25) at saturating concentrations of 4 mM NAD^+. Sodium sulfite was adjusted to the desired concentration by serial dilution from a 0.5 M stock solution. Sulfite concentration was adjusted to 0, 50, 100, 150, 200 or 300 µM for R301A or 0, 0.5, 1, 5, 10 or 20 µM for 17X-PTDH. An experiment was also performed with 17X-PTDH-R301A and saturating concentrations of 300 mM aminoguanidine, with sulfite concentrations of 0, 100, 200, 300, 400 or 500 µM. The reaction was initiated by addition of PTDH (0.1 µM final concentration, 5 µM for R301A). At each concentration of inhibitor, phosphite concentration was varied. The data was analyzed in GraFit 7.0 [28] using the equation for competitive inhibition (Equation 3) to fit all of the data, where I is the inhibitor concentration and K is the dissociation constant for a competitive inhibitor [29]. [drawing 5] (3)

17X-PTDH-R301A [7] = molecular target: T1, 17X-PTDH-R301A; format: biochemical, Pseudomonas stutzeri WM88; conditions: pH 7.25, read-out: K is
17X-PTDH [8] = test: Phosphite dissociation constant for 17X-PTDH by the method of Klinman and Matthews; format: biochemical, Pseudomonas stutzeri WM88; conditions: calculated from ^D(V/K), ^DV and K m,Phosphite
R301A = test: Phosphite Kd and Km for R301A; format: biochemical, Pseudomonas stutzeri WM88
H292A mutant of wt-PTDH = H292A mutant of wt-PTDH (Stutzerimonas stutzeri, UniProt O69054, H292A); format: biochemical, Pseudomonas stutzeri WM88; conditions: 10–100 mM reagent
H292G mutant of wt-PTDH = H292G mutant of wt-PTDH (Stutzerimonas stutzeri, UniProt O69054, H292G); format: biochemical, Pseudomonas stutzeri WM88; conditions: 10–100 mM reagent
[9] = wt enzyme, pH 7.25; ref (1) Relyea et al., 2005; cited from earlier work
[10] = wt enzyme, pH 7.25, cited from earlier work
[11] = R301A, k cat,apparent at saturating rescue reagent, 100 mM MOPS pH 7.25, 25°C, 4 mM NAD+
[12] = 0–2.0 mM aminoguanidine, 1 M phosphite, 4 mM NAD+, first experiment
[13] = repeat with a different batch of enzyme and reagents

Molecule: N=C(N)NN [aminoguanidine]
- k rescue/ K m, phosphite (17X-PTDH-R301A [1]; pH 7.25): 180 (10) M^−1 s^−1
- k rescue (17X-PTDH-R301A [1]; [11]): 1.4 (0.1) s^−1
- [drawing 6] (Brønsted plot ordinate; uses K R corrected for free base concentration at pH 7.25) (17X-PTDH-R301A [1]; R301A, pH 7.25): 5.3 (0.1)
- EC50 (17X-PTDH-R301A [1]; R301A): 32 mM
- K m, phosphite (apparent) (17X-PTDH-R301A [1]; R301A, pH 7.25): 7.4 (0.5) mM
- Activity with saturating rescue agent relative to wild-type activity (17X-PTDH-R301A [1]; R301A, saturating substrate and rescue agent): about 40%
- Rescue of activity of the R301A mutant (17X-PTDH-R301A [1]): markedly improved
- ^D k cat (17X-PTDH-R301A [2]): 2.1 (0.1)
- ^D k cat/K m (17X-PTDH-R301A [2]): 3.1 (0.3)
- Ratio of slopes of k cat,apparent vs rescue agent concentration, pH 7.5 : pH 7.0 (17X-PTDH-R301A [3]; [12]): 1.2±0.1
- Ratio of slopes of k cat,apparent vs rescue agent concentration, pH 8.0 : pH 7.0 (17X-PTDH-R301A [3]; [12]): 3.7±0.3
- Ratio of slopes, pH 7.5 : pH 7.0 (17X-PTDH-R301A [3]; [13]): 1.6±0.1
- Ratio of slopes, pH 8.0 : pH 7.0 (17X-PTDH-R301A [3]; [13]): 3.0±0.1
- Ratio of concentrations of reagent (pH 7.5 : pH 7), protonated [4]: 1.0
- Ratio of concentrations of reagent (pH 7.5 : pH 7), unprotonated [4]: 3.2
- Ratio of concentrations of reagent (pH 8 : pH 7), protonated [4]: 1.0
- Ratio of concentrations of reagent (pH 8 : pH 7), unprotonated [4]: 10.0
- Protonated (RNH3^+) proportion ([4]; pH 7.0): 99.99%
- Unprotonated (RNH2) proportion ([4]; pH 7.0): 0.01%
- Protonated (RNH3^+) proportion ([4]; pH 7.5): 99.97%
- Unprotonated (RNH2) proportion ([4]; pH 7.5): 0.03%
- Protonated (RNH3^+) proportion ([4]; pH 8.0): 99.90%
- Unprotonated (RNH2) proportion ([4]; pH 8.0): 0.10%
- pK a (conjugate acid of rescue reagent) [5]: 11.0

Molecule: O=S(O)O [sulfite]
- Ki (17X-PTDH [6]): 0.00031 mM
- Ki (17X-PTDH-R301A [7]; R301A + saturating 300 mM aminoguanidine): 0.078 mM
- Ki (17X-PTDH-R301A [7]; R301A, competitive vs phosphite, 4 mM NAD+): 0.13 mM

Molecule: phosphite
- Kd (17X-PTDH [8]): 0.023 ± 0.006 mM
- K m of phosphite (R301A; R301A, pH 8.0, no rescue agent): 300 ± 35 mM
- Kd (R301A; calculated from ^D(V/K), ^DV and K m,Phosphite): 13 ± 2 mM

Molecule: CN [methylamine]
- Rescue of activity of the R301A mutant (17X-PTDH-R301A [1]): not observed
- Rescue of activity of H292A mutant (H292A mutant of wt-PTDH): no activity
- Rescue of activity of H292G mutant (H292G mutant of wt-PTDH): no activity

Molecule: N=C(N)N [guanidine]
- k rescue/ K m, phosphite (17X-PTDH-R301A [1]; pH 7.25): 41 (4) M^−1 s^−1
- k rescue (17X-PTDH-R301A [1]; [11]): 1.2 (0.1) s^−1
- [drawing 6] (Brønsted plot ordinate; uses K R corrected for free base concentration at pH 7.25) (17X-PTDH-R301A [1]; R301A, pH 7.25): 8.1 (0.1)
- EC50 (17X-PTDH-R301A [1]; R301A): 18 mM
- K m, phosphite (apparent) (17X-PTDH-R301A [1]; R301A, pH 7.25): 30 (3) mM
- Rescue of activity of the R301A mutant (17X-PTDH-R301A [1]): markedly improved
- ^D k cat (17X-PTDH-R301A [2]): 1.8 (0.1)
- ^D k cat/K m (17X-PTDH-R301A [2]): 2.3 (0.1)
- pK a (conjugate acid of rescue reagent) [5]: 13.6

Molecule: CCN [ethylamine]
- Rescue of activity of the R301A mutant (17X-PTDH-R301A [1]): not observed

Molecule: NC(N)=O [urea]
- Rescue of activity of the R301A mutant (17X-PTDH-R301A [1]): not observed

Molecule: N=C(N)NC(N)=O [N-guanylurea]
- [drawing 6] (Brønsted plot ordinate; uses K R corrected for free base concentration at pH 7.25) (17X-PTDH-R301A [1]; pH 7.25): −2.9 (0.2)
- k rescue (17X-PTDH-R301A [1]; pH 7.25): 0.42 (0.07) s^−1
- pK a (conjugate acid of rescue reagent) [5]: 3.9

Molecule: CCNC(=N)N [ethylguanidine]
- k rescue (17X-PTDH-R301A [1]; [11]): 0.52 (0.13) s^−1
- [drawing 6] (Brønsted plot ordinate; uses K R corrected for free base concentration at pH 7.25) (17X-PTDH-R301A [1]; R301A, pH 7.25): 6.1 (0.2)
- Rescue of activity of the R301A mutant (17X-PTDH-R301A [1]): markedly improved
- pK a (conjugate acid of rescue reagent) [5]: 13.3

Molecule: c1c[nH]cn1 [imidazole]
- Rescue of activity of H292A mutant (H292A mutant of wt-PTDH): no activity; also recorded: failed to result in any activity
- Rescue of activity of H292G mutant (H292G mutant of wt-PTDH): no activity; also recorded: failed to result in any activity

Molecule: NC(N)=S [thiourea]
- Rescue of activity of the R301A mutant (17X-PTDH-R301A [1]): not observed

Molecule: c1nc[nH]n1 [1,2,4-triazole]
- Rescue of activity of H292A mutant (H292A mutant of wt-PTDH): no activity; also recorded: failed to result in any activity
- Rescue of activity of H292G mutant (H292G mutant of wt-PTDH): no activity; also recorded: failed to result in any activity

Molecule: CCCCN [butylamine, n-butylamine]
- Rescue of activity of the R301A mutant (17X-PTDH-R301A [1]): not observed

Molecule: NC(=O)NO [hydroxyurea]
- Rescue of activity of the R301A mutant (17X-PTDH-R301A [1]): not observed

Molecule: CN=C(N)N [methylguanidine]
- k rescue/ K m, phosphite (17X-PTDH-R301A [1]; pH 7.25): 5.2 (1.1) M^−1 s^−1
- k rescue (17X-PTDH-R301A [1]; [11]): 0.68 (0.04) s^−1
- [drawing 6] (Brønsted plot ordinate; uses K R corrected for free base concentration at pH 7.25) (17X-PTDH-R301A [1]; R301A, pH 7.25): 7.2 (0.1)
- EC50 (17X-PTDH-R301A [1]; R301A): 55 mM
- K m, phosphite (apparent) (17X-PTDH-R301A [1]; R301A, pH 7.25): 130 (30) mM
- Rescue of activity of the R301A mutant (17X-PTDH-R301A [1]): markedly improved
- ^D k cat (17X-PTDH-R301A [2]): 1.4 (0.1)
- ^D k cat/K m (17X-PTDH-R301A [2]): 1.6 (0.5)
- pK a (conjugate acid of rescue reagent) [5]: 13.4

Molecule: CC(=N)N [acetamidine]
- k rescue/ K m, phosphite (17X-PTDH-R301A [1]; pH 7.25): 6.7 (1.1) M^−1 s^−1
- k rescue (17X-PTDH-R301A [1]; [11]): 0.86 (0.08) s^−1
- [drawing 6] (Brønsted plot ordinate; uses K R corrected for free base concentration at pH 7.25) (17X-PTDH-R301A [1]; R301A, pH 7.25): 6.3 (0.1)
- EC50 (17X-PTDH-R301A [1]; R301A): 63 mM
- K m, phosphite (apparent) (17X-PTDH-R301A [1]; R301A, pH 7.25): 130 (20) mM
- Rescue of activity of the R301A mutant (17X-PTDH-R301A [1]): markedly improved
- ^D k cat (17X-PTDH-R301A [2]): 1.5 (0.1)
- ^D k cat/K m (17X-PTDH-R301A [2]): 1.8 (0.6)
- pK a (conjugate acid of rescue reagent) [5]: 12.5

B1: wt enzyme: wild-type phosphite dehydrogenase from Pseudomonas stutzeri WM88 (protein, UniProt O69054 1-336, looked up)
Phosphonate dehydrogenase: MLPKLVITHRVHDEILQLLAPHCELMTNQTDSTLTREEILRRCRDAQAMMAFMPDRVDADFLQACPELRVVGCALKGFDNFDVDACTARGVWLTFVPDLLTVPTAELAIGLAVGLGRHLRAADAFVRSGEFQGWQPQFYGTGLDNATVGILGMGAIGLAMADRLQGWGATLQYHEAKALDTQTEQRLGLRQVACSELFASSDFILLALPLNADTQHLVNAELLALVRPGALLVNPCRGSVVDEAAVLAALERGQLGGYAADVFEMEDWARADRPRLIDPALLAHPNTLFTPHIGSAVRAVRLEIERCAAQNIIQVLAGARPINAANRLPKAEPAAC
- substrate KIE on kcat [9]: 2.1
- solvent isotope effect (SIE) on k cat [10]: 1.55 and 1.55±0.07
- observed combined SIE and substrate KIE on kcat ([10]; ref (1) Relyea et al., 2005): 2.48
